Experimental data from article PMC9965906, “Discovery and Development Strategies for SARS-CoV-2 NSP3 Macrodomain Inhibitors” (Pathogens, 2023).
Where “and” joins values, the source holds several entries; their conditions need not be identical. Equal entries are not always repeated. Where two headings read alike, the source gives them in different places.

Molecular target: SARS-CoV-2 NSP3 Mac1 (Severe acute respiratory syndrome coronavirus 2, UniProt P0DTD1)
Test: biochemical
Type: binding
Conditions: for inhibition at 125 µM: read-out: Inhibition at top concentration of 125 µM (%)
[1] = MIDAS hit compounds and analogues
[2] = MIDAS hit compounds and analogues, top concentration 125 µM, 8-point 1:1 dilution, duplicate, read-out: IC50
[3] = MIDAS hit compounds and analogues, top concentration 125 µM, 8-point 1:1 dilution, duplicate
[4] = BioAscent virtual screening hit compounds, duplicate
[5] = FDA-approved compound library primary screen, 50 µM, single shot

Compound	inhibition at 125 µM [1]	IC50 in µM [3]	further results
COc1ccc(-c2cc(C(=O)N(C)C)c3ccccc3n2)cc1 [IAL-MD0088, COC=1C=CC(=CC1)C=2C=C(C(=O)N(C)C)C=3C=CC=CC3N2]	79.4%		IC50 [2]: 24 µM
COc1ccc(-c2cc(C(=O)NCC(F)(F)F)c3ccccc3n2)cc1 [IAL-MD0099, COC=1C=CC(=CC1)C=2C=C(C(=O)NCC(F)(F)F)C=3C=CC=CC3N2]	22.2%	Not measurable	
O=c1cc(-c2ccc(Cl)cc2)oc2cc(OCC(O)CS(=O)(=O)c3ccc(Cl)cc3)ccc12 (stereo not shown) [BCC0030992, O=c1cc(-c2ccc(Cl)cc2)oc2cc(OCC(O)CS(=O)(=O)c3ccc(Cl)cc3)ccc12]			inhibition at 25 µM [4]: 31.6%
Nc1ccc2oc(-c3cccnc3)nc2c1 [BCC0105824, Nc1ccc2oc(-c3cccnc3)nc2c1]			inhibition at 25 µM [4]: 30.1%
CC(C)(O/N=C(\C(=O)N[C@@H]1C(=O)N2C(C(=O)[O-])=C(C[n+]3ccccc3)CS[C@H]12)c1csc(N)n1)C(=O)O [Ceftazidime, reference compound]			NSP3 Mac1 inhibition at 50 µM (%) [5]: 108%; inhibition at 50 µM [5]: 108%; Hill slope (FDA-approved hit compounds, confirmatory HTRF assays): 1.38; IC50 (IC50): 37.1 µM and 37 µM
CN(C)C(=O)c1cncc(-c2ccnc3c2ccn3C)n1 [IAL-MD0135, O=C(C1=NC(C2=C3C(N(C)C=C3)=NC=C2)=CN=C1)N(C)C]	18.3%	Not measurable	
CC(C)n1ncc2c(C(=O)N3CCNC(=O)C3)cc(-c3ccccc3)nc21 [IAL-MD0123, CC(C)N1N=CC=2C(=CC(=NC12)C=3C=CC=CC3)C(=O)N4CCNC(=O)C4]	1.8%	Not measurable	
Cc1cc2nn(-c3ccccc3)nc2cc1N [BCC0086077, Cc1cc2nn(-c3ccccc3)nc2cc1N]			inhibition at 25 µM [4]: 67.8%
CN(C)C(=O)c1ccc(-c2ccnc3c2ccn3C)o1 [IAL-MD0133, O=C(N(C)C)C1=CC=C(C2=C3C(N(C)C=C3)=NC=C2)O1]			Inhibition at top concentration of 125 µM (%) [1]: Not measurable due to compound precipitation; IC50 [2]: 8.5 µM
CC(C)n1ncc2c(C(=O)N3CCC(C)(CO)CC3)cc(-c3cccs3)nc21 [IAL-MD0106, CC(C)N1N=CC=2C(=CC(=NC12)C3=CC=CS3)C(=O)N4CCC(C)(CO)CC4]	32.1%	Not measurable	
CCN(C)C(=O)c1ccc(-c2ccnc3c2ccn3C)nc1 [IAL-MD0144, O=C(N(CC)C)C1=CN=C(C2=C3C(N(C)C=C3)=NC=C2)C=C1]	23.8%	Not measurable	
CN(C)C(=O)c1ccc(-c2ccnc3c2ccn3C)nc1 [IAL-MD0140, O=C(N(C)C)C1=CN=C(C2=C3C(N(C)C=C3)=NC=C2)C=C1]			Inhibition at top concentration of 125 µM (%) [1]: Not measurable due to compound precipitation; IC50 [2]: 6.9 µM
CC(C)n1ncc2c(C(=O)N3CCNC(=O)C3)cc(-c3cccs3)nc21 [IAL-MD0064, CC(C)N1N=CC=2C(=CC(=NC12)C3=CC=CS3)C(=O)N4CCNC(=O)C4]	78.7%		IC50 [2]: 25 µM and 25.2 µM
Cn1ccc2c(-c3cncc(C(=O)N4CCCCC4)n3)ccnc21 [IAL-MD0137, O=C(C1=CN=CC(C2=C3C(N(C)C=C3)=NC=C2)=N1)N4CCCCC4]	25.8%	Not measurable	
Candicidin [reference compound]			NSP3 Mac1 inhibition at 50 µM (%) [5]: 50.1%; NSP3 Mac1 inhibition at 50 µM (%) (FDA-approved compound library primary screen, 50 µM, single shot, listed as candicidin): 50%
CCn1ncc2c(C(=O)N3CCOCC3)cc(-c3ccccc3)nc21 [IAL-MD0050, CCN1N=CC=2C(=CC(=NC12)C=3C=CC=CC3)C(=O)N4CCOCC4]		Not measurable	Inhibition at top concentration of 125 µM (%) [1]: Not measurable
Cc1cc(CN(C)C(=O)c2cc(-c3cccs3)nc3c2cnn3C(C)C)no1 [IAL-MD0073, CC(C)N1N=CC=2C(=CC(=NC12)C3=CC=CS3)C(=O)N(C)CC=4C=C(C)ON4]	47%	Not measurable	
CC(C)n1ncc2c(C(=O)N3CCCC(C)(O)C3)cc(-c3cccs3)nc21 (stereo not shown) [IAL-MD0086, CC(C)N1N=CC=2C(=CC(=NC12)C3=CC=CS3)C(=O)N4CCCC(C)(O)C4]	47.7%	Not measurable	
O=C(Nc1ccc2cc[nH]c2c1)c1csc(NCC2CCCO2)n1 (stereo not shown) [ARUK4000671-001-001, O=C(Nc1ccc2cc[nH]c2c1)c1csc(n1)NCC1CCCO1]			inhibition at 25 µM (MIDAS compound library primary screen): 106%
COc1ccc(-c2cc(C(=O)Nc3ccc(S(C)(=O)=O)cc3)c3ccccc3n2)cc1 [IAL-MD0058, COC=1C=CC(=CC1)C=2C=C(C(=O)NC=3C=CC(=CC3)S(=O)(=O)C)C=4C=CC=CC4N2]	18.7%	Not measurable	
CC(=O)N1CCN(C(=O)c2cc(-c3cccs3)nc3c2c(C)nn3C)CC1 [IAL-MD0054, CC(=O)N1CCN(CC1)C(=O)C=2C=C(N=C3N(C)N=C(C)C23)C4=CC=CS4]	41.5%	Not measurable	
